{"source": "paper PMC5218480", "about": "(PLoS ONE, 2017)", "test_system": "MV-4-11 cells", "experiment": "Gene expression microarray analysis (Affymetrix PrimeView) and GSEA", "type": "cell-based, human", "set-up": "RFU PODN (11730768_x_at) / Fold change /veh PODN (11730768_x_at) / RFU LINC00158 (11744669_a_at) / Fold change /veh LINC00158 (11744669_a_at) / RFU DUSP10 (11751237_a_at) / Fold change /veh DUSP10 (11751237_a_at) / RFU ID3 (11757404_x_at) / Fold change /veh ID3 (11757404_x_at) / RFU PLEKHG5 (11737974_s_at) / Fold change /veh PLEKHG5 (11737974_s_at) / RFU LRRC4B (11730491_at) / Fold change /veh LRRC4B (11730491_at) / RFU GIMAP4 (11747438_a_at) / Fold change /veh GIMAP4 (11747438_a_at) / RFU KRT8 (11758183_x_at) / Fold change /veh KRT8 (11758183_x_at) / RFU CNN1 (11734310_a_at) / Fold change /veh CNN1 (11734310_a_at) / RFU VPS37D (11726825_at) / Fold change /veh VPS37D (11726825_at) / RFU C10orf10 (11716522_x_at) / Fold change /veh C10orf10 (11716522_x_at) / RFU KIR2DL2 /// KIR2DL4 /// KIR2DL5A /// KIR2DL5B /// KIR2DS1 /// KIR2DS2 /// KIR2DS3 /// KIR2DS4 /// KIR3DL3 /// KIR3DL3 /// KIR3DS1 (11738374_at) / Fold change /veh KIR2DL2 /// KIR2DL4 /// KIR2DL5A /// KIR2DL5B /// KIR2DS1 /// KIR2DS2 /// KIR2DS3 /// KIR2DS4 /// KIR3DL3 /// KIR3DL3 /// KIR3DS1 (11738374_at) / RFU C1QL1 (11718748_at) / Fold change /veh C1QL1 (11718748_at) / RFU TMPRSS4 (11747572_a_at) / Fold change /veh TMPRSS4 (11747572_a_at) / RFU HAMP (11756126_x_at) / Fold change /veh HAMP (11756126_x_at) / RFU RNFT2 (11725882_a_at) / Fold change /veh RNFT2 (11725882_a_at) / RFU NR4A2 (11747474_a_at) / Fold change /veh NR4A2 (11747474_a_at) / RFU ABCC12 (11746883_a_at) / Fold change /veh ABCC12 (11746883_a_at) / RFU TMEM136 (11760407_x_at) / Fold change /veh TMEM136 (11760407_x_at) / RFU CLDN22 /// WWC2 (11732394_at) / Fold change /veh CLDN22 /// WWC2 (11732394_at) / RFU HLA-DPB1 (11760878_x_at) / Fold change /veh HLA-DPB1 (11760878_x_at) / RFU SPINT1 (11716480_a_at) / Fold change /veh SPINT1 (11716480_a_at) / RFU GAP43 (11754022_s_at) / Fold change /veh GAP43 (11754022_s_at) / RFU A4GNT (11735810_at) / Fold change /veh A4GNT (11735810_at) / RFU PRB3 (11715151_x_at) / Fold change /veh PRB3 (11715151_x_at) / RFU TUBB4B (11761932_at) / Fold change /veh TUBB4B (11761932_at) / RFU CAPN14 (11732068_a_at) / Fold change /veh CAPN14 (11732068_a_at) / RFU TMCC2 (11721928_a_at) / Fold change /veh TMCC2 (11721928_a_at) / RFU IRGQ (11745062_a_at) / Fold change /veh IRGQ (11745062_a_at) / RFU FAM174B (11720279_a_at) / Fold change /veh FAM174B (11720279_a_at) / RFU TMPRSS4 (11748680_a_at) / Fold change /veh TMPRSS4 (11748680_a_at) / RFU FAM212B (11763350_a_at) / Fold change /veh FAM212B (11763350_a_at) / RFU PLEKHG5 (11743358_a_at) / Fold change /veh PLEKHG5 (11743358_a_at) / RFU ZSCAN30 (11745921_a_at) / Fold change /veh ZSCAN30 (11745921_a_at) / RFU CMKLR1 (11741424_a_at) / Fold change /veh CMKLR1 (11741424_a_at) / RFU LOC101060620 /// MAPK8IP1 (11723275_at) / Fold change /veh LOC101060620 /// MAPK8IP1 (11723275_at) / RFU SPTSSB (11747773_x_at) / Fold change /veh SPTSSB (11747773_x_at) / RFU PRSS12 (11739890_at) / Fold change /veh PRSS12 (11739890_at) / RFU BIN1 (11741810_x_at) / Fold change /veh BIN1 (11741810_x_at) / RFU WNT11 (11732464_a_at) / Fold change /veh WNT11 (11732464_a_at) / RFU C10orf10 (11716521_a_at) / Fold change /veh C10orf10 (11716521_a_at) / RFU C5orf56 (11738089_at) / Fold change /veh C5orf56 (11738089_at) / RFU CYB561 (11721691_x_at) / Fold change /veh CYB561 (11721691_x_at) / RFU ANKRD19P (11752326_a_at) / Fold change /veh ANKRD19P (11752326_a_at) / RFU OR2T12 /// OR2T33 /// OR2T8 (11738714_s_at) / Fold change /veh OR2T12 /// OR2T33 /// OR2T8 (11738714_s_at) / RFU VCAN (11748164_a_at) / Fold change /veh VCAN (11748164_a_at) / RFU JSRP1 (11732532_at) / Fold change /veh JSRP1 (11732532_at) / RFU KRTAP10-11 (11738290_x_at) / Fold change /veh KRTAP10-11 (11738290_x_at) / RFU MYO3A (11730013_a_at) / Fold change /veh MYO3A (11730013_a_at) / RFU EBF3 (11725865_a_at) / Fold change /veh EBF3 (11725865_a_at) / RFU CAMK2N1 (11719241_x_at) / Fold change /veh CAMK2N1 (11719241_x_at) / RFU C5orf56 (11738088_a_at) / Fold change /veh C5orf56 (11738088_a_at) / RFU OLFML3 (11715873_a_at) / Fold change /veh OLFML3 (11715873_a_at) / RFU LOC100653217 /// NTM (11731650_a_at) / Fold change /veh LOC100653217 /// NTM (11731650_a_at) / RFU MAPK11 (11762145_a_at) / Fold change /veh MAPK11 (11762145_a_at) / RFU FIZ1 (11724087_x_at) / Fold change /veh FIZ1 (11724087_x_at) / RFU OASL (11726364_x_at) / Fold change /veh OASL (11726364_x_at) / RFU SOX15 (11748057_x_at) / Fold change /veh SOX15 (11748057_x_at) / RFU CD79A (11719716_a_at) / Fold change /veh CD79A (11719716_a_at) / RFU HIST1H1D (11736915_at) / Fold change /veh HIST1H1D (11736915_at) / RFU CASKIN2 (11723855_a_at) / Fold change /veh CASKIN2 (11723855_a_at) / RFU LOC730098 (11760151_x_at) / Fold change /veh LOC730098 (11760151_x_at) / RFU OR4N2 (11742367_at) / Fold change /veh OR4N2 (11742367_at) / RFU PRRT2 (11749266_a_at) / Fold change /veh PRRT2 (11749266_a_at) / RFU SNX32 (11753110_a_at) / Fold change /veh SNX32 (11753110_a_at) / RFU CDHR5 (11726645_a_at) / Fold change /veh CDHR5 (11726645_a_at) / RFU RCAN1 (11760418_a_at) / Fold change /veh RCAN1 (11760418_a_at) / RFU FAM167A (11723789_a_at) / Fold change /veh FAM167A (11723789_a_at) / RFU FAM26E (11764081_at) / Fold change /veh FAM26E (11764081_at) / RFU ISYNA1 (11749810_s_at) / Fold change /veh ISYNA1 (11749810_s_at) / RFU ACY1 (11761880_at) / Fold change /veh ACY1 (11761880_at) / RFU 11764098_at / Fold change /veh 11764098_at / RFU SAMD14 (11745864_x_at) / Fold change /veh SAMD14 (11745864_x_at) / RFU NPB (11741838_a_at) / Fold change /veh NPB (11741838_a_at) / RFU TMPRSS6 (11731388_a_at) / Fold change /veh TMPRSS6 (11731388_a_at) / RFU KRTAP10-2 (11738614_at) / Fold change /veh KRTAP10-2 (11738614_at) / RFU ARHGAP8 /// PRR5-ARHGAP8 (11727945_x_at) / Fold change /veh ARHGAP8 /// PRR5-ARHGAP8 (11727945_x_at) / RFU KRTAP5-7 /// NADSYN1 (11734609_at) / Fold change /veh KRTAP5-7 /// NADSYN1 (11734609_at) / RFU RASL12 (11751679_a_at) / Fold change /veh RASL12 (11751679_a_at) / RFU CDKN2B (11736163_a_at) / Fold change /veh CDKN2B (11736163_a_at) / RFU PRF1 (11729649_at) / Fold change /veh PRF1 (11729649_at) / RFU, ZNF638 /// ZNF638-IT1 / Fold change vs veh, ZNF638 /// ZNF638-IT1 / RFU, PANK3 / Fold change vs veh, PANK3 / RFU, SH3YL1 / Fold change vs veh, SH3YL1 / RFU, ZEB2 / Fold change vs veh, ZEB2 / RFU, NRIP1 / Fold change vs veh, NRIP1 / RFU, PTTG1IP / Fold change vs veh, PTTG1IP / RFU, CAPN2 / Fold change vs veh, CAPN2 / RFU, MED14 / Fold change vs veh, MED14 / RFU, SNORA58 / Fold change vs veh, SNORA58 / RFU, C1orf63 / Fold change vs veh, C1orf63 / RFU, LRRFIP1 / Fold change vs veh, LRRFIP1 / RFU, NDUFAF7 / Fold change vs veh, NDUFAF7 / RFU, SLC12A2 / Fold change vs veh, SLC12A2 / RFU, IBTK / Fold change vs veh, IBTK / RFU, ESF1 / Fold change vs veh, ESF1 / Fold change vs veh, TMEM50B / RFU, TAOK1 / Fold change vs veh, TAOK1 / RFU, ACBD3 / Fold change vs veh, ACBD3 / RFU, TMA16 / Fold change vs veh, TMA16 / RFU, RWDD3 / Fold change vs veh, RWDD3 / RFU, BCAT1 / Fold change vs veh, BCAT1 / RFU, EDEM3 / Fold change vs veh, EDEM3 / RFU, TMEM33 / Fold change vs veh, TMEM33 / RFU, WDR75 / Fold change vs veh, WDR75 / RFU, AHCTF1 / Fold change vs veh, AHCTF1 / RFU, TFRC / Fold change vs veh, TFRC / RFU, ZDHHC17 / Fold change vs veh, ZDHHC17 / RFU, NOM1 / Fold change vs veh, NOM1 / RFU, ARL8B / Fold change vs veh, ARL8B / RFU, ZBTB11 / Fold change vs veh, ZBTB11 / RFU, TAMM41 / Fold change vs veh, TAMM41 / RFU, KIAA1704 /// LOC100996395 / Fold change vs veh, KIAA1704 /// LOC100996395 / RFU, ING1 / Fold change vs veh, ING1 / RFU, TRMT61B / Fold change vs veh, TRMT61B / RFU, FUBP3 / Fold change vs veh, FUBP3 / RFU, TP53 / Fold change vs veh, TP53 / RFU, TNKS2 / Fold change vs veh, TNKS2 / RFU, ZFP14 / Fold change vs veh, ZFP14 / RFU, ACTR2 / Fold change vs veh, ACTR2 / RFU, PPP3R1 / Fold change vs veh, PPP3R1 / RFU, PIK3R1 / Fold change vs veh, PIK3R1 / RFU, HNRNPA1 / Fold change vs veh, HNRNPA1 / RFU, RNF170 / Fold change vs veh, RNF170 / RFU, ZNF28 / Fold change vs veh, ZNF28 / RFU, RNGTT / Fold change vs veh, RNGTT / RFU, OGT / Fold change vs veh, OGT / RFU, BRD1 / Fold change vs veh, BRD1 / RFU, MARS / Fold change vs veh, MARS / RFU, ZNF655 / Fold change vs veh, ZNF655 / RFU, FAHD1 / Fold change vs veh, FAHD1 / RFU, BDP1 / Fold change vs veh, BDP1 / RFU, LRRCC1 / Fold change vs veh, LRRCC1 / RFU, ARID1A / Fold change vs veh, ARID1A / RFU, ZNF146 / Fold change vs veh, ZNF146 / RFU, ZNF330 / Fold change vs veh, ZNF330 / RFU, GPN3 / Fold change vs veh, GPN3 / RFU, C9orf123 / Fold change vs veh, C9orf123 / RFU, N4BP2L2 / Fold change vs veh, N4BP2L2 / RFU, ARFIP1 / Fold change vs veh, ARFIP1 / RFU, FAM179B / Fold change vs veh, FAM179B / RFU, BCL10 / Fold change vs veh, BCL10 / RFU, UHRF1BP1L / Fold change vs veh, UHRF1BP1L / RFU, BET1 / Fold change vs veh, BET1 / RFU, CNOT2 / Fold change vs veh, CNOT2 / RFU, ZNF268 / Fold change vs veh, ZNF268 / Fold change vs veh, ZNF507 / RFU, DGCR2 / Fold change vs veh, DGCR2 / RFU, WDSUB1 / Fold change vs veh, WDSUB1 / Fold change vs veh, HSP90B1 /// MIR3652 / RFU, ADSS / Fold change vs veh, ADSS / RFU, GK / Fold change vs veh, GK / RFU, ZNF148 / Fold change vs veh, ZNF148 / RFU, TAF9 / Fold change vs veh, TAF9 / RFU, SLC1A5 / Fold change vs veh, SLC1A5 / RFU, SLMO2 / Fold change vs veh, SLMO2 / RFU, ABCC4 / Fold change vs veh, ABCC4 / RFU, LOC101060439 /// RAP1B / Fold change vs veh, LOC101060439 /// RAP1B / RFU, RFX7 / Fold change vs veh, RFX7 / RFU, GTPBP10 / Fold change vs veh, GTPBP10 / RFU, CNEP1R1 / Fold change vs veh, CNEP1R1 / RFU, BIVM-ERCC5 /// ERCC5 / Fold change vs veh, BIVM-ERCC5 /// ERCC5 / RFU, ILF3 / Fold change vs veh, ILF3 / RFU 11762660_at / Fold change /veh 11762660_at / RFU VCAN (11757783_s_at) / Fold change /veh VCAN (11757783_s_at) / RFU DDX43 (11728927_at) / Fold change /veh DDX43 (11728927_at) / RFU KRT8 (11758188_x_at) / Fold change /veh KRT8 (11758188_x_at) / RFU NKD1 (11759106_at) / Fold change /veh NKD1 (11759106_at) / RFU SRD5A1 (11742802_a_at) / Fold change /veh SRD5A1 (11742802_a_at) / RFU TPSAB1 /// TPSB2 (11721975_s_at) / Fold change /veh TPSAB1 /// TPSB2 (11721975_s_at) / RFU GSTM3 (11746129_a_at) / Fold change /veh GSTM3 (11746129_a_at) / RFU IL23R (11737362_x_at) / Fold change /veh IL23R (11737362_x_at) / RFU TMEM51 (11727254_a_at) / Fold change /veh TMEM51 (11727254_a_at) / RFU PIWIL2 (11732686_x_at) / Fold change /veh PIWIL2 (11732686_x_at) / RFU ORM1 (11744905_x_at) / Fold change /veh ORM1 (11744905_x_at) / RFU CCDC152 (11743942_at) / Fold change /veh CCDC152 (11743942_at) / RFU ECM1 (11717891_a_at) / Fold change /veh ECM1 (11717891_a_at) / RFU IL23R (11748794_a_at) / Fold change /veh IL23R (11748794_a_at) / RFU TNFAIP8L3 (11732012_x_at) / Fold change /veh TNFAIP8L3 (11732012_x_at) / RFU MBOAT4 (11741988_at) / Fold change /veh MBOAT4 (11741988_at) / RFU 11764193_at / Fold change /veh 11764193_at / RFU TMEM53 (11763286_at) / Fold change /veh TMEM53 (11763286_at) / RFU MAGEB2 (11727129_at) / Fold change /veh MAGEB2 (11727129_at) / RFU TMEM200A (11744735_a_at) / Fold change /veh TMEM200A (11744735_a_at) / RFU CCDC152 (11751479_a_at) / Fold change /veh CCDC152 (11751479_a_at) / RFU FAM211A (11726209_a_at) / Fold change /veh FAM211A (11726209_a_at) / RFU RGS16 (11746705_a_at) / Fold change /veh RGS16 (11746705_a_at) / RFU VCAN (11755009_s_at) / Fold change /veh VCAN (11755009_s_at) / RFU RHOB (11743442_s_at) / Fold change /veh RHOB (11743442_s_at) / RFU RGS16 (11720943_a_at) / Fold change /veh RGS16 (11720943_a_at) / RFU RGS16 (11720944_at) / Fold change /veh RGS16 (11720944_at) / RFU, VPS4B / Fold change vs veh, VPS4B / RFU, CREB1 / Fold change vs veh, CREB1 / RFU, DNAJC13 / Fold change vs veh, DNAJC13 / RFU, GNAQ / Fold change vs veh, GNAQ / RFU, CDK5R1 / Fold change vs veh, CDK5R1 / RFU, ZRANB3 / Fold change vs veh, ZRANB3 / RFU, CUL4A / Fold change vs veh, CUL4A / RFU, CCNY / Fold change vs veh, CCNY / RFU, UFL1 / Fold change vs veh, UFL1 / RFU, COG3 / Fold change vs veh, COG3 / RFU, DIAPH2 / Fold change vs veh, DIAPH2 / RFU, SKA2 / Fold change vs veh, SKA2 / RFU, AFF3 / Fold change vs veh, AFF3 / RFU, LMF1 / Fold change vs veh, LMF1 / RFU, IPO11 / Fold change vs veh, IPO11 / RFU, DFFB / Fold change vs veh, DFFB / RFU, FOXP1 / Fold change vs veh, FOXP1 / RFU, CARD8 / Fold change vs veh, CARD8 / RFU, STRN3 / Fold change vs veh, STRN3 / RFU, ADK / Fold change vs veh, ADK / RFU, RASSF2 / Fold change vs veh, RASSF2 / RFU, WIPF1 / Fold change vs veh, WIPF1 / RFU, LARP1B / Fold change vs veh, LARP1B / RFU, RASA1 / Fold change vs veh, RASA1 / RFU, RB1 / Fold change vs veh, RB1 / RFU, PPFIA1 / Fold change vs veh, PPFIA1 / RFU, MAT2A / Fold change vs veh, MAT2A / RFU, CCT5 / Fold change vs veh, CCT5 / RFU, WDR92 / Fold change vs veh, WDR92 / RFU, CUX1 / Fold change vs veh, CUX1 / RFU, TTC7A / Fold change vs veh, TTC7A / RFU, TMEM135 / Fold change vs veh, TMEM135 / RFU, DEPTOR / Fold change vs veh, DEPTOR / RFU, CPM / Fold change vs veh, CPM / RFU, DNAJB6 / Fold change vs veh, DNAJB6 / RFU, CACNA2D3 / Fold change vs veh, CACNA2D3 / RFU, DTX4 / Fold change vs veh, DTX4 / RFU, TFCP2 / Fold change vs veh, TFCP2 / RFU, GMCL1 /// GMCL1P1 / Fold change vs veh, GMCL1 /// GMCL1P1 / RFU, AEBP2 / Fold change vs veh, AEBP2 / RFU, SNHG1 /// SNORD22 /// SNORD25 /// SNORD26 /// SNORD27 /// SNORD28 /// SNORD29 /// SNORD31 / Fold change vs veh, SNHG1 /// SNORD22 /// SNORD25 /// SNORD26 /// SNORD27 /// SNORD28 /// SNORD29 /// SNORD31 / Fold change (Aza/veh), C12orf56 (ProbeSet 11735607_a_at) / Fold change (ACY-1035/veh), C12orf56 (ProbeSet 11735607_a_at) / Fold change (Aza/veh), FGFR1OP (ProbeSet 11751329_s_at) / Fold change (ACY-1035/veh), FGFR1OP (ProbeSet 11751329_s_at) / Fold change (Aza/veh), VPS36 (ProbeSet 11739960_a_at) / Fold change (ACY-1035/veh), VPS36 (ProbeSet 11739960_a_at) / RFU SYPL1 (11715823_x_at) / Fold change /veh SYPL1 (11715823_x_at) / RFU IGFBP7 (11715501_s_at) / Fold change /veh IGFBP7 (11715501_s_at) / RFU REEP3 (11722064_at) / Fold change /veh REEP3 (11722064_at) / RFU IGLL1 (11728026_x_at) / Fold change /veh IGLL1 (11728026_x_at): dose or concentration left out as unconfirmed", "conditions": "MV-4-11 cells, 48 hours", "data": [{"smiles": "Nc1ncn([C@@H]2O[C@H](CO)[C@@H](O)[C@H]2O)c(=O)n1", "note": "[azacitidine]", "values": [{"measurement": "RFU CASKIN2 (11723855_a_at)", "result": 31.47, "unit": "RFU"}]}]}
